# Patent US20040029841A1, “Purinergic antagonists for treating depression” (priority 2002, published 2004)
# System: brain bioenergetic status
# Test: In vivo 31P magnetic resonance spectroscopy and T2 relaxation times of the brain (axial slice, bilateral basal ganglia) in healthy individuals taking oral SAMe
# Design: species or system human
# Description: This lowering was measured as a decrease in the ratio of beta ATP to total ^31P MRS metabolites and detected using magnetic resonance imaging (see, e.g., U.S. Pat. No. 6,258,794, hereby incorporated by reference).
# Five healthy men and seven healthy women self-administered 1600 mg of oral SAMe daily. The effect of SAMe on brain bioenergetic status, membrane integrity, and brain transverse relaxation time (T2) was then examined. In vivo ^31P magnetic resonance spectra and relaxation times were acquired, at baseline and after 14 and 28 days of treatment, from an axial slice (50 mm) encompassing the bilateral basal ganglia using a 1.5-T scanner. […] The changes observed in PCr and β-NTP are consistent with the report that SAMe is involved in the production of creatine, which in turn is phosphorylated to PCr at the expense of β-NTP (Braissant et al., Brain Res. Mol. Brain Res. 2001, 86:193-201).
# As changes in T2 relaxation times are inversely related to alterations in steady state blood flow, the decrease in T2 observed in women corresponds to a 3.8% increase in cerebral blood flow.
compound,measurement,setting,value
"C[S+](CC[C@H](N)C(=O)O)C[C@H]1O[C@@H](n2cnc3c(N)ncnc32)[C@H](O)[C@@H]1O (some centres unmarked) [SAMe, S-adenosylmethionine]",circulating levels of ATP (ratio of beta ATP to total 31P MRS metabolites),"healthy individuals, on average, magnetic resonance",lowering of circulating levels of ATP
same,mole percent concentrations of phosphocreatine (PCr),"healthy men and women, 1600 mg oral SAMe daily, 14 and 28 days of treatment vs baseline, 31P MRS, basal ganglia slice",significantly higher than at baseline
same,"mole percent beta nucleoside triphosphate (β-NTP) levels, predominantly adenosine triphosphate in the brain","healthy men and women, 1600 mg oral SAMe daily, after treatment vs baseline, 31P MRS, FIG. 1",decreased significantly
same,brain transverse relaxation time (T2),"women vs men at the end of the treatment regimen, 1600 mg oral SAMe daily",significantly lower T2 values than men
same,increase in cerebral blood flow,"women, worked out from the decrease in T2 relaxation time",3.8%
